ChEMBL document CHEMBL4613212, “Insights of synthetic analogues of anti-leprosy agents” (Bioorg Med Chem, 2019)
Converted amounts (≈) assume the structure as drawn.

Legend:
[1] = system: Mycolicibacterium fortuitum; assay: Antimicrobial activity against Mycobacterium fortuitum incubated for 24 hrs by broth microdilution assay; assay type: functional
[2] = system: Mycolicibacterium smegmatis; assay: Antimicrobial activity against Mycobacterium smegmatis incubated for 24 hrs by broth microdilution assay; assay type: functional
Mycobacterium leprae [3] = assay: Antimicrobial activity against Mycobacterium leprae assessed as microbial growth at 1.5 ug/ml in presence of 0.05 ug/ml rifabutin measured at 4 weeks (reference value: 147 +/- 19.1%); assay type: functional
Mycobacterium leprae [4] = assay: Antimicrobial activity against Mycobacterium leprae assessed as fractional inhibitory concentration index at 1.5 ug/ml in presence of 0.2 ug/ml rifampin measured at 4 weeks; assay type: functional
Mycobacterium leprae [5] = assay: Antimicrobial activity against Mycobacterium leprae assessed as microbial growth at 1.5 ug/ml in presence of 0.2 ug/ml rifampin measured at 4 weeks (reference value: 147 +/- 19.1%); assay type: functional
Mycolicibacterium vaccae = assay: Antimicrobial activity against Mycobacterium vaccae incubated for 24 hrs by broth microdilution assay; assay type: functional
Mycobacterium leprae [6] = assay: Antimicrobial activity against Mycobacterium leprae assessed as microbial growth at 1.5 ug/ml in presence of 0.025 ug/ml KRM-1648 measured at 4 weeks (reference value: 147 +/- 19.1%); assay type: functional
Mycobacterium leprae [7] = assay: Antimicrobial activity against Mycobacterium leprae assessed as microbial growth at 1.5 ug/ml in presence of 0.1 ug/ml rifampin measured at 4 weeks (reference value: 147 +/- 19.1%); assay type: functional
Mycobacterium leprae [8] = assay: Antimicrobial activity against Mycobacterium leprae assessed as microbial growth at 1.5 ug/ml in presence of 0.1 ug/ml rifabutin measured at 4 weeks (reference value: 147 +/- 19.1%); assay type: functional
Mycobacterium leprae [9] = assay: Antimicrobial activity against Mycobacterium leprae assessed as microbial growth at 1.5 ug/ml in presence of 0.0125 ug/ml KRM-1648 measured at 4 weeks (reference value: 147 +/- 19.1%); assay type: functional
Mycobacterium leprae [10] = assay: Antimicrobial activity against Mycobacterium leprae assessed as fractional inhibitory concentration index at 1.5 ug/ml in presence of 0.025 ug/ml KRM-1648 measured at 4 weeks; assay type: functional
Mycobacterium leprae [11] = assay: Antimicrobial activity against Mycobacterium leprae assessed as fractional inhibitory concentration index at 1.5 ug/ml in presence of 0.1 ug/ml rifabutin measured at 4 weeks; assay type: functional
Mycolicibacterium aurum = assay: Antimicrobial activity against Mycobacterium aurum incubated for 24 hrs by broth microdilution assay; assay type: functional
Mycobacterium leprae [12] = assay: Anti-leprotic activity against Mycobacterium leprae infected in BALB/c weanling mouse assessed as bacteria killing at 150 mg/kg, ip administrated for 60 days and measured after 1 year by Spearman-Karber technique analysis relative to control; assay type: functional
Mycobacterium leprae [13] = assay: Anti-leprotic activity against Mycobacterium leprae infected in BALB/c weanling mouse assessed as bacteria killing at 150 mg/kg, ip administrated cotreated with 0.0001% dietary dapsone for 60 days and measured after 1 year by most probable number technique analysis relative to control; assay type: functional
[14] = system: Mycobacterium tuberculosis; assay: Antimycobacterial activity against Mycobacterium tuberculosis H37Rv by BACTEC radiometric growth assay; assay type: functional
Mycobacterium leprae [15] = assay: Anti-leprotic activity against Mycobacterium leprae infected in BALB/c weanling mouse assessed as bacteria killing at 150 mg/kg, ip administrated cotreated with 0.0001% dietary dapsone for 60 days and measured after 1 year by Spearman-Karber technique analysis relative to control; assay type: functional
Mycobacterium leprae [16] = assay: Anti-leprotic activity against Mycobacterium leprae infected in BALB/c weanling mouse assessed as bacteria killing at 150 mg/kg, ip administrated for 60 days and measured after 1 year by most probable number technique analysis relative to control; assay type: functional
Mycobacterium leprae [17] = assay: Antimicrobial activity against Mycobacterium leprae assessed as fractional inhibitory concentration index at 0.1875 ug/ml in presence of 0.05 ug/ml rifabutin measured at 4 weeks; assay type: functional
Mycobacterium leprae [18] = assay: Antimicrobial activity against Mycobacterium leprae assessed as microbial growth at 0.1875 ug/ml in presence of 0.05 ug/ml rifabutin measured at 4 weeks (reference value: 147 +/- 19.1%); assay type: functional
Mycobacterium leprae [19] = assay: Antimicrobial activity against Mycobacterium leprae assessed as fractional inhibitory concentration index at 0.1875 ug/ml in presence of 0.0125 ug/ml KRM-1648 measured at 4 weeks; assay type: functional
Mycobacterium leprae [20] = assay: Antimicrobial activity against Mycobacterium leprae assessed as microbial growth at 0.1875 ug/ml in presence of 0.0125 ug/ml KRM-1648 measured at 4 weeks (reference value: 147 +/- 19.1%); assay type: functional
Mycobacterium leprae [21] = assay: Antimicrobial activity against Mycobacterium leprae assessed as microbial growth at 0.375 ug/ml in presence of 0.2 ug/ml rifampin measured at 4 weeks (reference value: 147 +/- 19.1%); assay type: functional
Mycobacterium leprae [22] = assay: Antimicrobial activity against Mycobacterium leprae assessed as microbial growth at 0.375 ug/ml in presence of 0.1 ug/ml rifampin measured at 4 weeks (reference value: 147 +/- 19.1%); assay type: functional
Mycobacterium leprae [23] = assay: Antimicrobial activity against Mycobacterium leprae assessed as fractional inhibitory concentration index at 0.375 ug/ml in presence of 0.2 ug/ml rifampin measured at 4 weeks; assay type: functional
Mycobacterium leprae [24] = assay: Antimicrobial activity against Mycobacterium leprae assessed as microbial growth at 0.1875 ug/ml in presence of 0.025 ug/ml rifabutin measured at 4 weeks (reference value: 147 +/- 19.1%); assay type: functional
Mycobacterium leprae [25] = assay: Antimicrobial activity against Mycobacterium leprae assessed as microbial growth at 0.1875 ug/ml in presence of 0.0062 ug/ml KRM-1648 measured at 4 weeks (reference value: 147 +/- 19.1%); assay type: functional
Mycobacterium leprae [26] = assay: Antimicrobial activity against Mycobacterium leprae assessed as fractional inhibitory concentration index at 0.375 ug/ml in presence of 0.0125 ug/ml KRM-1648 measured at 4 weeks; assay type: functional
Mycobacterium leprae [27] = assay: Antimicrobial activity against Mycobacterium leprae assessed as microbial growth at 0.375 ug/ml in presence of 0.025 ug/ml rifabutin measured at 4 weeks (reference value: 147 +/- 19.1%); assay type: functional
Mycobacterium leprae [28] = assay: Antimicrobial activity against Mycobacterium leprae assessed as microbial growth at 0.375 ug/ml in presence of 0.0062 ug/ml KRM-1648 measured at 4 weeks (reference value: 147 +/- 19.1%); assay type: functional
Mycobacterium leprae [29] = assay: Antimicrobial activity against Mycobacterium leprae assessed as microbial growth at 0.75 ug/ml in presence of 0.1 ug/ml rifampin measured at 4 weeks (reference value: 147 +/- 19.1%); assay type: functional
Mycobacterium leprae [30] = assay: Antimicrobial activity against Mycobacterium leprae assessed as fractional inhibitory concentration index at 0.75 ug/ml in presence of 0.2 ug/ml rifampin measured at 4 weeks; assay type: functional
Mycobacterium leprae [31] = assay: Antimicrobial activity against Mycobacterium leprae assessed as fractional inhibitory concentration index at 0.375 ug/ml in presence of 0.05 ug/ml rifabutin measured at 4 weeks; assay type: functional
Mycobacterium leprae [32] = assay: Antimicrobial activity against Mycobacterium leprae assessed as microbial growth at 0.375 ug/ml in presence of 0.05 ug/ml rifabutin measured at 4 weeks (reference value: 147 +/- 19.1%); assay type: functional
Mycobacterium leprae [33] = assay: Antimicrobial activity against Mycobacterium leprae assessed as microbial growth at 0.75 ug/ml in presence of 0.2 ug/ml rifampin measured at 4 weeks (reference value: 147 +/- 19.1%); assay type: functional
Mycobacterium leprae [34] = assay: Antimicrobial activity against Mycobacterium leprae assessed as microbial growth at 0.375 ug/ml in presence of 0.0125 ug/ml KRM-1648 measured at 4 weeks (reference value: 147 +/- 19.1%); assay type: functional
[35] = system: Mycobacterium tuberculosis; assay: Antitubercular activity against Mycobacterium tuberculosis H37Rv ATCC 27294 infected in bone marrow macrophages assessed as reduction in growth after 7 days; assay type: functional; settings: H37Rv ATCC 27294, 168 h
[36] = system: Mycobacterium tuberculosis; assay: Antitubercular activity against Mycobacterium tuberculosis H37Rv ATCC 27294 assessed as growth inhibition at 6.25 ug/ml by microplate alamar blue assay relative to control; assay type: functional
[37] = Selectivity index, ratio of IC50 for African green monkey Vero cells to MIC for antitubercular activity against Mycobacterium tuberculosis H37Rv; assay type: toxicity; settings: Vero cells, read-out: Selectivity Index
[38] = system: Mycobacterium tuberculosis; assay: Antitubercular activity against Mycobacterium tuberculosis H37Rv ATCC 27294 assessed as inhibition of [3H]-thymidine incorporation relative to control; assay type: functional
[39] = system: Mycolicibacterium smegmatis; assay: Antimycobacterial activity against DDS sensitive Mycobacterium smegmatis ATCC 607 […]; assay type: functional
Mycobacterium leprae [40] = assay: Anti-leprotic activity against Mycobacterium leprae infected in BALB/c mouse assessed as time delay in bacterial multiplication in footpad at 0.003 g/100g of diet administered via feed starting 60 or 75 day post infection up to 90 days by Shepard's kinetic method; assay type: functional
[41] = system: Mycolicibacterium smegmatis; assay: Antimycobacterial activity against DDS resistant Mycobacterium smegmatis ATCC 607 […]; assay type: functional

O=C(O)c1cn(C2CC2)c2cc(N3CCNCC3)c(F)cc2c1=O [CIPROFLOXACIN]
MIC [1]: 0.05 µg/mL (≈ 0.151 µM) | MIC [2]: 0.8 µg/mL (≈ 2.41 µM) | Activity (Mycobacterium leprae [3]): 21% | fractional inhibitory concentration index (FICI) (Mycobacterium leprae [4]): 1 | Activity (Mycobacterium leprae [5]): 0% | MIC (Mycolicibacterium vaccae): 0.4 µg/mL (≈ 1.21 µM) | Activity (Mycobacterium leprae [6]): 0% | Activity (Mycobacterium leprae [7]): 28% | Activity (Mycobacterium leprae [8]): 0% | Activity (Mycobacterium leprae [9]): 19% | fractional inhibitory concentration index (FICI) (Mycobacterium leprae [10]): 1 | fractional inhibitory concentration index (FICI) (Mycobacterium leprae [11]): 1 | MIC (Mycolicibacterium aurum): < 0.05 µg/mL

CN[C@@H]1[C@H](O[C@H]2[C@H](O[C@H]3[C@H](O)[C@@H](O)[C@H](N=C(N)N)[C@@H](O)[C@@H]3N=C(N)N)O[C@@H](C)[C@]2(O)C=O)O[C@@H](CO)[C@H](O)[C@H]1O [STREPTOMYCIN]
Activity (Mycobacterium leprae [12]): 97% | Activity (Mycobacterium leprae [13]): 95.7% | MIC [14]: 2 µg/mL (≈ 3.44 µM) | Activity (Mycobacterium leprae [15]): 95% | Activity (Mycobacterium leprae [16]): 97.2%

C[C@H]1COc2c(N3CCN(C)CC3)c(F)cc3c(=O)c(C(=O)O)cn1c23.C[C@H]1COc2c(N3CCN(C)CC3)c(F)cc3c(=O)c(C(=O)O)cn1c23.O [LEVOFLOXACIN]
fractional inhibitory concentration index (FICI) (Mycobacterium leprae [17]): 0.5 | Activity (Mycobacterium leprae [18]): 0% | fractional inhibitory concentration index (FICI) (Mycobacterium leprae [19]): 0.5 | Activity (Mycobacterium leprae [20]): 0% | Activity (Mycobacterium leprae [21]): 0% | Activity (Mycobacterium leprae [22]): 87% | fractional inhibitory concentration index (FICI) (Mycobacterium leprae [23]): 1 | Activity (Mycobacterium leprae [24]): 133% | Activity (Mycobacterium leprae [25]): 115%

CC1COc2c(N3CCN(C)CC3)c(F)cc3c(=O)c(C(=O)O)cn1c23 (stereo not drawn) [OFLOXACIN]
fractional inhibitory concentration index (FICI) (Mycobacterium leprae [26]): 0.5 | Activity (Mycobacterium leprae [27]): 121% | Activity (Mycobacterium leprae [28]): 124% | Activity (Mycobacterium leprae [29]): 72% | fractional inhibitory concentration index (FICI) (Mycobacterium leprae [30]): 1 | fractional inhibitory concentration index (FICI) (Mycobacterium leprae [31]): 0.5 | Activity (Mycobacterium leprae [32]): 0% | Activity (Mycobacterium leprae [33]): 0% | Activity (Mycobacterium leprae [34]): 0%

Clc1nc(-c2ccco2)c2ncn(Cc3ccccc3)c2n1
EC99 [35]: 8 µg/mL | inhibition at 6.25 µg/mL [36]: > 90% | selectivity ratio [37]: 10.6 | inhibition (INH) [38]: 27%

Nc1ccc(S(=O)(=O)c2cccc(N)c2)cc1
MIC [39]: 24.2 µg/mL (≈ 97.5 µM) | Time (Mycobacterium leprae [40]): 133 days | MIC [41]: 1300 µg/mL (≈ 5240 µM)
